{
  "source": "ChEMBL document CHEMBL2346538",
  "about": "“Synthesis, cyclooxygenase inhibitory effects, and molecular modeling study of 4-aryl-5-(4-(methylsulfonyl)phenyl)-2-alkylthio and -2-alkylsulfonyl-1H-imidazole derivatives” (Bioorg Med Chem, 2013)",
  "note": "pIC50: −log10 of the molar value.",
  "data": [
    {"target": "T1, Prostaglandin G/H synthase 2 (Homo sapiens, UniProt P35354)", "T1 sequence (P35354 whole entry)": "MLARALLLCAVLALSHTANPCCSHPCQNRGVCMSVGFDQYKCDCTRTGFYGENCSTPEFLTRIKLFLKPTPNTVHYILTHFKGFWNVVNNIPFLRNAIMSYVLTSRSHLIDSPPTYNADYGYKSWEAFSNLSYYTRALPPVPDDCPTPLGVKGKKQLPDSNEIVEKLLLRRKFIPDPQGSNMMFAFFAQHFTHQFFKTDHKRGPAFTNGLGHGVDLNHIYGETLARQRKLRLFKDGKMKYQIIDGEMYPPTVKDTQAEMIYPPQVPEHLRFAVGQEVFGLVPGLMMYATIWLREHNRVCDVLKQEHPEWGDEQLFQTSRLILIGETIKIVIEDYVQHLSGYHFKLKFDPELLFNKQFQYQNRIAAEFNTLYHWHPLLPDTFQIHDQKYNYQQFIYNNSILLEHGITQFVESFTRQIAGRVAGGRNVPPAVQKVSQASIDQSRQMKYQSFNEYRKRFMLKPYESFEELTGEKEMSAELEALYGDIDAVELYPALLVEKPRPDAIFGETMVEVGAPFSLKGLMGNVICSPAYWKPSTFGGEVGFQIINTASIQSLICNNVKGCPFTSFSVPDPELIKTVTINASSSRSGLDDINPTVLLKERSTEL", "test": "Inhibition of COX2 in human blood assessed as TxB2 level after 1 hr by enzyme immunoassay", "values": [
      {"molecule": "CS(=O)(=O)c1ccc(-c2[nH]c(S(C)(=O)=O)nc2-c2ccc(F)cc2)cc1", "pIC50": 6.55},
      {"molecule": "CSc1nc(-c2ccc(F)cc2)c(-c2ccc(S(C)(=O)=O)cc2)[nH]1", "pIC50": 7.15},
      {"molecule": "CSc1nc(-c2ccc(Cl)cc2)c(-c2ccc(S(C)(=O)=O)cc2)[nH]1", "pIC50": 7.00},
      {"molecule": "CS(=O)(=O)c1ccc(-c2[nH]c(S(C)(=O)=O)nc2-c2ccccc2)cc1", "pIC50": 6.55},
      {"molecule": "CS(=O)(=O)c1ccc(-c2[nH]c(S(C)(=O)=O)nc2-c2ccc(Cl)cc2)cc1", "pIC50": 6.51},
      {"molecule": "CCSc1nc(-c2ccccc2)c(-c2ccc(S(C)(=O)=O)cc2)[nH]1", "pIC50": 7.30},
      {"molecule": "CCSc1nc(-c2ccc(F)cc2)c(-c2ccc(S(C)(=O)=O)cc2)[nH]1", "pIC50": 7.10},
      {"molecule": "CCSc1nc(-c2ccc(Cl)cc2)c(-c2ccc(S(C)(=O)=O)cc2)[nH]1", "pIC50": 6.96},
      {"molecule": "CCS(=O)(=O)c1nc(-c2ccccc2)c(-c2ccc(S(C)(=O)=O)cc2)[nH]1", "pIC50": 6.62},
      {"molecule": "CCS(=O)(=O)c1nc(-c2ccc(F)cc2)c(-c2ccc(S(C)(=O)=O)cc2)[nH]1", "pIC50": 6.51},
      {"molecule": "CCS(=O)(=O)c1nc(-c2ccc(Cl)cc2)c(-c2ccc(S(C)(=O)=O)cc2)[nH]1", "pIC50": 6.49},
      {"molecule": "CSc1nc(-c2ccccc2)c(-c2ccc(S(C)(=O)=O)cc2)[nH]1", "pIC50": 7.22}
    ]}
  ]
}
